Results published in US20250236619A1, “FUSED BICYCLIC COMPOUND CONTAINING PYRROLINONE” (CHIA TAI TIANQING PHARMACEUTICAL GROUP CO., LTD., priority 2022, published 2025).
Where two headings read alike, the source gives them in different places.

What was measured:
[1] = target: HPK1 kinase (Homo sapiens (Human), UniProt Q92918); assay: Assay for in vitro inhibitory activity against HPK1 kinase; type: biochemical; conditions: HPK1 1 ng/μL, ATP 1 mM, STK Substrate 1-biotin 500 nM
Description: Experimental Example 1: Assay for In Vitro Inhibitory Activity Against HPK1 Kinase A kinase buffer (Enzymatic buffer 5×) was diluted to 1×, and 10 mM MgCl2, 1 mM DTT, and 0.005% Tween 20 were added. A 100 ng/μL HPK1 (Life technology) stock solution was diluted with the kinase buffer to obtain a 1.67×, 1.67 ng/μL working solution (final concentration: 1 ng/μL), and the working solution was seeded in a 384-well plate at 6 μL/well. Different compounds dissolved in DMSO were added to the wells using a nanoliter pipettor to obtain final concentrations of the compounds of 1000 nM to 0.244 nM (4-fold serial dilution, 7 concentrations in total), and blank control wells (without enzyme) and negative control wells (with enzyme, plus vehicle DMSO) were set; the wells were set in duplicate. After the enzyme and the compounds were incubated at room temperature for 1 h, a 5×, 5 mM ATP dilution (final concentration: 1 mM) in the kinase buffer was mixed with a 5×, […] substrate (Cisbio, STK Substrate 1-biotin; final concentration: 500 nM) in equal volume, and the mixture was added to the plate at 4 µL/well. The plate was sealed with a film and then incubated at room temperature for 2 h. An assay antibody solution was prepared by mixing the antibody STK Antibody-cryptate (Cisbio, 5 μL/test) and a 4×, 500 nM Streptavidin-XL665 (Cisbio; final concentration: 125 nM) in equal volume and added to the plate at 10 μL/well. The plate was incubated at room temperature for 1 h. The signal values (excitation: […]) were measured using a PE Envision multimode microplate reader, and IC50 was calculated by four-parameter fitting.

[2] = test system: p-SLP76 phosphorylation of Jurkat cells; assay: Assay for inhibitory activity against p-SLP76 phosphorylation of Jurkat cells; type: cell-based; conditions: stimulator CD3CD28, 30 min, read-out: IC50 (nM) for inhibition of p-SLP76 phosphorylation of Jurkat cells
Description: 2.1 Assay for Inhibitory Activity Against p-SLP76 Phosphorylation of Jurkat Cells
Jurkat cells in a good growth state were added to a centrifuge tube, centrifuged, and resuspended. The cell density was adjusted to 6.25×10^6 cells/mL, and the cells were seeded in a 384-well small-volume white plate at […]. Different compounds dissolved in DMSO were added to the wells using a nanoliter pipettor to obtain final concentrations of the compounds of 2500 nM to 10.29 nM, and a control was set; the wells were set in duplicate. After 1 h of cell culture, the stimulator CD3CD28 (manufacturer: stemcell, 4 μL) was added and the cells were incubated at 37° C. for 30 min. 3 μL of lysis buffer (manufacturer: BioAuxilium) was added to each well, and the plate was shaken at room temperature for 30 min. After the lysate was well mixed, 5 μL of pre-mixed antibody (manufacturer: BioAuxilium) in assay buffer was added and the plate was incubated overnight at room temperature. The signal values were measured on a PerkinElmer Envision multimode microplate reader (excitation: 320 nm, emission: 615 nm/665 nm), and IC50 was calculated by four-parameter filling.

Chain of HPK1 kinase (Q92918 whole entry): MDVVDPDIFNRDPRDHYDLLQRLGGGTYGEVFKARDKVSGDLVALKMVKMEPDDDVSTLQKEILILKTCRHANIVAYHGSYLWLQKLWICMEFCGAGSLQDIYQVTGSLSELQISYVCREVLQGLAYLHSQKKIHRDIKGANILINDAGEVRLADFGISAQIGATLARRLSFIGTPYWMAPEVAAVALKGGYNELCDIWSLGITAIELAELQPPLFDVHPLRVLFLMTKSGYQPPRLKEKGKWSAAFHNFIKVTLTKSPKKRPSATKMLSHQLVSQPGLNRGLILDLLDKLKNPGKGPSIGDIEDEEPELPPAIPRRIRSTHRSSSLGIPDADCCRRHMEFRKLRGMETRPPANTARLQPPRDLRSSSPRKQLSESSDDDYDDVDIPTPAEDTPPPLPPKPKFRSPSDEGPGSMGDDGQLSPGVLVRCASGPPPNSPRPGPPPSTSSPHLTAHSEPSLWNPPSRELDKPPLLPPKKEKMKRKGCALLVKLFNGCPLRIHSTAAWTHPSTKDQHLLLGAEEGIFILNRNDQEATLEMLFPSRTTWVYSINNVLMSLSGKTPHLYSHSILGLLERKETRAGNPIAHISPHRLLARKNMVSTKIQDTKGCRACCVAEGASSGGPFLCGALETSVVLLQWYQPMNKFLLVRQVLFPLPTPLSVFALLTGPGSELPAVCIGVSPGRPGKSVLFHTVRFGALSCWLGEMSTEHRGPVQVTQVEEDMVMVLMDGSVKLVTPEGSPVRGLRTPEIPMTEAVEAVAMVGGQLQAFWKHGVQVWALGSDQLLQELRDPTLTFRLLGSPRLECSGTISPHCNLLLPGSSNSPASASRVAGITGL

| IC50 ([2]; Homo sapiens, 0.5 h) [nM] | SMILES | IC50 [1] [nM] | IC50 [2] [nM] |
| --- | --- | --- | --- |
| < 50 | [2H]C([2H])(c1nc(Nc2cnc(-c3ccnc4c3c3c(n4C)CCC3)c3c2C(=O)NC3)ccc1C1CCOCC1)N(C)C [Compound I-17] |  |  |
| < 50 | CNCc1nc(Nc2ccc(-c3cnn4ccc5occc5c34)c3c2C(=O)NC3)sc1C1CCOCC1 [Compound I-85] |  |  |
| < 50 | CC(=O)N(C)c1ccc(Nc2ccc(-c3cnn4ccc5occc5c34)c3c2C(=O)NC3)nc1CN(C)C [Compound I-70] |  |  |
| < 50 | CN(C)Cc1nc(Nc2ccc(-c3cnn4c3CC3(CC3)C4)c3c2C(=O)NC3)ccc1C1CCOCC1 [Compound I-34] |  |  |
| 50 to 100 | CN(C)Cc1nc(Nc2cnc(-c3ccnc4c3c3c(n4C)CCC3)c3c2C(=O)NC3)ccc1C1(O)CCOCC1 [Compound I-10] | 5.6 |  |
| < 50 | CN(C)Cc1nc(Nc2ccc(-c3cnc4ccc5occc5n34)c3c2C(=O)NC3)ccc1N1CCCC1=O [Compound I-52] |  |  |
| < 50 | CN(C)Cc1nc(Nc2ccc(-c3cnc4cnc5occc5n34)c3c2C(=O)NC3)ccc1C1CCOC1 (centres unmarked) [Compound I-54] |  |  |
| < 50 | CN(C)Cc1nc(Nc2ccc(-c3cnn4c3CC3(CC3)C4)c3c2C(=O)NC3)ccc1C1CCN(C)C(=O)C1 (centres unmarked) [Compound I-67] |  |  |

The next lines start with the compound.

| SMILES | IC50 ([2]; Homo sapiens, 0.5 h) [nM] | IC50 [1] [nM] | IC50 [2] [nM] |
| --- | --- | --- | --- |
| CN(C)Cc1nc(Nc2ccc(-c3nnc4ccc5c(n34)OCC5)c3c2C(=O)NC3)ccc1C1CCOCC1 [Compound I-36] |  | 5.3 | 50 to 100 |
| CN(C)Cc1nc(Nc2ccc(-c3cnc4cnc5occc5n34)c3c2C(=O)NC3)ccc1C1CCOCC1 [Compound I-48] | < 50 |  |  |
| CN(C)Cc1nc(Nc2ccc(-c3cnc4cnc5occc5n34)c3c2C(=O)NC3)ccc1[C@@H]1CCN(C)C(=O)C1 [Compound I-68] |  | 7.7 |  |
| CN(C)Cc1nc(Nc2ccc(-c3cnn4cc5c(nc34)CCC5)c3c2C(=O)NC3)ccc1C1CCOCC1 [Compound I-30] |  | 3.6 | 50 to 100 |
| CN(C)Cc1nc(Nc2ccc(-c3cnc4ccc5occc5n34)c3c2C(=O)NC3)ccc1-c1ccn(C)c(=O)c1 [Compound I-77] |  | 2.9 | < 50 |
| CN(C)Cc1nc(Nc2ccc(-c3cnn4c3CC3(CC3)C4)c3c2C(=O)NC3)ccc1C1CCN(C)CC1 [Compound I-78] |  | 2.3 | 50 to 100 |
| CN(C)Cc1nc(Nc2ccc(-c3nnc4cc5c(nn34)CCC5)c3c2C(=O)NC3)ccc1C1CCOCC1 [Compound I-26] |  | 16 |  |
| CN(C)Cc1nc(Nc2ccc(-c3cnn4ccc5occc5c34)c3c2C(=O)NC3)ccc1C1CC(=O)N(C)C1 (centres unmarked) [Compound I-59] | < 50 |  |  |
| [2H]C([2H])([2H])N(Cc1nc(Nc2cnc(-c3ccnc4c3c3c(n4C)CCC3)c3c2C(=O)NC3)ccc1C1CCOCC1)C([2H])([2H])[2H] [Compound I-14] |  | 1.4 |  |
| CN(C)Cc1nc(Nc2ccc(-c3cnn4ccc5ccoc5c34)c3c2C(=O)NC3)ccc1C1CCOCC1 [Compound I-11] |  | 1.6 |  |
| CN(C)Cc1nc(Nc2ccc(-c3cnc4cnc5occc5n34)c3c2C(=O)NC3)ccc1[C@H]1CCN(C)C(=O)C1 [Compound I-69] |  | 3.7 | < 50 |
| CN(C)Cc1nc(Nc2ccc(-c3cnc4ccc5occc5n34)c3c2C(=O)NC3)ccc1C1CCN(C)C(=O)C1 (centres unmarked) [Compound I-66] | < 50 |  |  |
| CN(C)Cc1nc(Nc2ccc(-c3ccnc4c3cc3n4CCC3)c3c2C(=O)NC3)ccc1C1CCN(C)C(=O)C1 (centres unmarked) [Compound I-82] |  | 3 |  |
| CN(C)Cc1nc(Nc2ccc(-c3nnc4cc5c(cn34)CCC5)c3c2C(=O)NC3)ccc1C1CCOCC1 [Compound I-27] |  | 23 |  |
| CN(C)Cc1nc(Nc2ccc(-c3cnc4n3C3CC3C4)c3c2C(=O)NC3)ccc1C1CCOCC1 (centres unmarked) [Compound I-43] |  | 16 |  |
| CN(C)Cc1nc(Nc2cnc(-c3cnc4ccc5sccc5n34)c3c2C(=O)NC3)ccc1C1CCOCC1 [Compound I-41] |  | 18 |  |
| [2H]C([2H])(c1nc(Nc2ccc(-c3cnn4c3CC3(CC3)C4)c3c2C(=O)NC3)ccc1C1CCOCC1)N(C)C [Compound I-53] | < 50 |  |  |
| CN(C)Cc1nc(Nc2ccc(-c3cnn4ccc5occc5c34)c3c2C(=O)NC3)ccc1C1CCOCC1 [Compound I-38] | < 50 |  |  |
